# Laboratory results as given in patent publication US11566007B2, “Ras inhibitors” (Revolution Medicines, Inc., priority 2019, dated 2023).
# pEC50, pIC50: −log10 of the molar value. Several values for one entry are separate records, joined by “and”; a condition that tells them apart may be missing. Equal entries are not always repeated. Where two headings read alike, the source gives them in different places.
# Tests used:
# KRAS G13D = KRAS G13D (Homo sapiens (Human), UniProt P01116+P62937, G13D); assay: Ras-Raf (BRAF RBD) disruption / FRET / MOA assay, KRAS G13D; assay type: biochemical
# KRAS G13D, sequence (P01116-2 other isoform, or with tags, fused parts or gaps G13D): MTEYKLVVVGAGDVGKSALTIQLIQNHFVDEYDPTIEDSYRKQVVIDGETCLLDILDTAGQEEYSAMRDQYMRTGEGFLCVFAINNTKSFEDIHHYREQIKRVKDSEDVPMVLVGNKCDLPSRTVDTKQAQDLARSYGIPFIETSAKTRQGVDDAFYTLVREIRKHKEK
# KRAS G13D, sequence (P62937 whole entry, canonical isoform): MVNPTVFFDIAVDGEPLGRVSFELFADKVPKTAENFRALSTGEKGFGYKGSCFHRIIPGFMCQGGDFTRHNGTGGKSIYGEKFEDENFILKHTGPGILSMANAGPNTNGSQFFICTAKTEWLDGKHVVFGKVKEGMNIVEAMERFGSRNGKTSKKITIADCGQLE
# Procedure: (§1) The purpose of this biochemical assay is to measure the ability of test compounds to facilitate ternary complex formation between a nucleotide-loaded Ras isoform and cyclophilin A; the resulting ternary complex disrupts binding to a BRAF^RBD construct, inhibiting Ras signaling through a RAF effector.
# (§2) Compound is present in plate wells as a 10-point 3-fold dilution series starting at a final concentration of 30 μM. After incubation at 25° C. for 3 hours, a mixture of Anti-His Eu-W1024 and anti-GST allophycocyanin is then added to assay sample wells at final concentrations of 10 nM and 50 nM, respectively, and the reaction incubated for an additional 1.5 hours. […] Compounds that facilitate disruption of a Ras:RAF complex are identified as those eliciting a decrease in the TR-FRET ratio relative to DMSO control wells.
# (§3) This protocol may also be executed substituting other Ras proteins or nucleotides.
# (§4) The purpose of this biochemical assay was to measure the ability of test compounds to facilitate ternary complex formation between a nucleotide-loaded K-Ras isoform and Cyclophilin A; the resulting ternary complex disrupts binding to a BRAF^RBD construct, inhibiting K-Ras signaling through a RAF effector. Data is reported as IC50 values.
# as §2, with “Compound was” for “Compound is”, “allophycocyanin was” for “allophycocyanin is”, “a K-Ras:RAF” for “a Ras:RAF”, “complex were” for “complex are”
# K-Ras G12C = K-Ras G12C (Homo sapiens (Human), UniProt P01116+P62937, G12C); assay: Ras-Raf (BRAF RBD) disruption / FRET / MOA assay, KRAS G12C; assay type: biochemical; settings: KRAS G12C, Ras-Raf disruption/FRET/MOA assay
# K-Ras G12C, sequence (P01116-2 other isoform, or with tags, fused parts or gaps G12C): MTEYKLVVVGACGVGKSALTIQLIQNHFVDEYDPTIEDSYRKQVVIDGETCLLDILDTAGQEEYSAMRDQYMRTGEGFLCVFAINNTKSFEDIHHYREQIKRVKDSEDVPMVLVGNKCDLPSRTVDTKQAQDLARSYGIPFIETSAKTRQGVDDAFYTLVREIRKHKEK
# K-Ras G12C, sequence (P62937 whole entry): as the sequence (P62937 whole entry, canonical isoform) above
# Procedure: as §1, §2, §3, §4
# as §2, with “Compound was” for “Compound is”, “allophycocyanin was” for “allophycocyanin is”, “a K-Ras:RAF” for “a Ras:RAF”, “complex were” for “complex are”
# K-Ras G13C = K-Ras G13C (Homo sapiens (Human), UniProt P01116+P62937, G13C); assay: Ras-Raf (BRAF RBD) disruption / FRET / MOA assay, KRAS G13C; assay type: biochemical; settings: KRAS G13C, Ras-Raf disruption/FRET/MOA assay
# K-Ras G13C, sequence (P01116-2 other isoform, or with tags, fused parts or gaps G13C): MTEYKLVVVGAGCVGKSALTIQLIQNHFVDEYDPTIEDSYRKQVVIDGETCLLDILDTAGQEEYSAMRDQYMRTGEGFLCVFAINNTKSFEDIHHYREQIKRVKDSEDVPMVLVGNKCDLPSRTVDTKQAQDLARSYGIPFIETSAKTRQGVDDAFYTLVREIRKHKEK
# K-Ras G13C, sequence (P62937 whole entry): as the sequence (P62937 whole entry, canonical isoform) above
# Procedure: as §1, §2, §3, §4
# as §2, with “Compound was” for “Compound is”, “allophycocyanin was” for “allophycocyanin is”, “a K-Ras:RAF” for “a Ras:RAF”, “complex were” for “complex are”
# KRAS G12S = KRAS G12S (Homo sapiens (Human), UniProt P01116+P62937, G12S); assay: Ras-Raf (BRAF RBD) disruption / FRET / MOA assay, KRAS G12S; assay type: biochemical; settings: class symbols
# KRAS G12S, sequence (P01116-2 other isoform, or with tags, fused parts or gaps G12S): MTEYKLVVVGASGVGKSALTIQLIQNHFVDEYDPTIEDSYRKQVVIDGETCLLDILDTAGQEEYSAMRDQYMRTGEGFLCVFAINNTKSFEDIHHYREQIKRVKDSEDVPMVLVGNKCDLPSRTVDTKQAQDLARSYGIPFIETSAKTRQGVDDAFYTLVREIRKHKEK
# KRAS G12S, sequence (P62937 whole entry): as the sequence (P62937 whole entry, canonical isoform) above
# Method in brief: (§5)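 Ras:RAF disruption was scored as a fall in TR-FRET ratio relative to DMSO. Compound ranged in 3-fold steps over 10 points from 30 μM final; incubation ran 3 h at 25° C, detection antibodies a further 1.5 h. Reported as IC50.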
# KRAS WT = KRAS WT (Homo sapiens (Human), UniProt P01116+P62937); assay: Ras-Raf (BRAF RBD) disruption / FRET / MOA assay, KRAS WT; assay type: biochemical
# KRAS WT, sequence (P01116-2 other isoform, or with tags, fused parts or gaps): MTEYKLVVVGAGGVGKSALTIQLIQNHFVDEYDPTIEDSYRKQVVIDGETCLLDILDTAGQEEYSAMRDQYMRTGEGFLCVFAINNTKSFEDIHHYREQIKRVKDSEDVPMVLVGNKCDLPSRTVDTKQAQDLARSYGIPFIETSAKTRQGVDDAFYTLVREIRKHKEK
# KRAS WT, sequence (P62937 whole entry): as the sequence (P62937 whole entry, canonical isoform) above
# Procedure: as §1, §2, §3, §4
# as §2, with “Compound was” for “Compound is”, “allophycocyanin was” for “allophycocyanin is”, “a K-Ras:RAF” for “a Ras:RAF”, “complex were” for “complex are”
# [1] = test system: NCI-H358 cells (K-Ras G12C); assay: Potency assay: pERK in NCI-H358 cells; assay type: cell-based, human; settings: H358 KRAS G12C, read-out: pERK EC50
# Method in brief: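 Compounds are dosed as ten 3-fold dilutions from a 10 mM DMSO stock, in duplicate, and left on cells for 4 h at 37 °C, 5% CO2. Phospho-ERK1/2 is then quantified by AlphaLISA SureFire Ultra or In-Cell Western, and IC50 is derived from a 4-parameter sigmoid against log concentration.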
# NRAS G12C = NRAS G12C (Homo sapiens (Human), UniProt P01111+P62937, G12C); assay: Ras-Raf (BRAF RBD) disruption / FRET / MOA assay, NRAS G12C; assay type: biochemical
# NRAS G12C, sequence (P01111 whole entry G12C): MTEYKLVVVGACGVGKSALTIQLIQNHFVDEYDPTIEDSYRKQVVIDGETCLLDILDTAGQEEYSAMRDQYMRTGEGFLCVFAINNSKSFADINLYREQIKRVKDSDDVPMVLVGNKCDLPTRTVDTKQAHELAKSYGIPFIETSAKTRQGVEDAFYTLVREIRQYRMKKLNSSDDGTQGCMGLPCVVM
# NRAS G12C, sequence (P62937 whole entry): as the sequence (P62937 whole entry, canonical isoform) above
# Procedure: as §1, §2
# This protocol may also be executed substituting other Ras proteins or nucleotides. […]
# KRAS G12D = KRAS G12D (Homo sapiens (Human), UniProt P01116+P62937, G12D); assay: Ras-Raf (BRAF RBD) disruption / FRET / MOA assay, KRAS G12D; assay type: biochemical; settings: class symbols
# KRAS G12D, sequence (P01116-2 other isoform, or with tags, fused parts or gaps G12D): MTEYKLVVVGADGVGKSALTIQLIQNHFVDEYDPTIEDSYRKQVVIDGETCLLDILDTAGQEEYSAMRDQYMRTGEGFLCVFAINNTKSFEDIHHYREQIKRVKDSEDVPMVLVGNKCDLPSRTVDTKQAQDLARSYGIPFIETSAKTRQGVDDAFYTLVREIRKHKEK
# KRAS G12D, sequence (P62937 whole entry): as the sequence (P62937 whole entry, canonical isoform) above
# Method in brief: as §5
# KRAS G12V = KRAS G12V (Homo sapiens (Human), UniProt P01116+P62937, G12V); assay: Ras-Raf (BRAF RBD) disruption / FRET / MOA assay, KRAS G12V; assay type: biochemical
# KRAS G12V, sequence (P01116-2 other isoform, or with tags, fused parts or gaps G12V): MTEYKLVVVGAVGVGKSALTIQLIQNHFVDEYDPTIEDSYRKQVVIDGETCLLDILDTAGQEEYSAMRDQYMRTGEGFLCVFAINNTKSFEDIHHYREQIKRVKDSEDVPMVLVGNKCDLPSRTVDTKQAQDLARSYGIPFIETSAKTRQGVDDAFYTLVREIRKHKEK
# KRAS G12V, sequence (P62937 whole entry): as the sequence (P62937 whole entry, canonical isoform) above
# Procedure: as §1, §2, §3, §4
# as §2, with “Compound was” for “Compound is”, “allophycocyanin was” for “allophycocyanin is”, “a K-Ras:RAF” for “a Ras:RAF”, “complex were” for “complex are”
# NCI-H358 (K-Ras G12C) = assay: CellTiter-Glo cell viability assay, NCI-H358; assay type: cell-based, human; settings: Homo sapiens, NCI-H358, 120 h, NCI-H358, 5-day treatment; class symbols; read-out: Additional H358 Cell Viability assay data (K-Ras G12C, IC50)
# Method in brief: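 Four-parameter logistic fits were applied to luminescence data normalized against DMSO-treated wells. Readings were taken on day 5 following direct compound addition, after roughly 30 minutes at room temperature.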
# [2] = read-out: IC50* KRAS G13D FRET data
# [3] = read-out: IC50* KRAS G12C FRET data
# [4] = read-out: IC50* KRAS G13C FRET data
# [5] = Ras-Raf disruption/FRET/MOA assay, read-out: KRAS G12S FRET data IC50
# [6] = read-out: IC50* KRAS WT FRET data
# [7] = read-out: IC50* NRAS G12C FRET data
# [8] = Ras-Raf disruption/FRET/MOA assay, read-out: KRAS G12D FRET data IC50
# [9] = read-out: IC50* KRAS G12V FRET data
"pEC50 ([1]; Homo sapiens, NCI-H358)",Compound,pIC50 (KRAS G13D; [2]),pIC50 (K-Ras G12C; [3]),pIC50 (K-Ras G13C; [4]),pIC50 (KRAS G12S; [5]),pIC50 (KRAS WT; [6]),pIC50 (NRAS G12C; [7]),pIC50 (KRAS G12D; [8]),pIC50 (KRAS G12V; [9]),pEC50 [1],pIC50 (KRAS G13D; IC50* KRAS G13D FRET data),pIC50 (K-Ras G12C; IC50* KRAS G12C FRET data),pIC50 (K-Ras G13C; IC50* KRAS G13C FRET data),"pIC50 (KRAS G12S; KRAS G12S FRET data IC50, Ras-Raf disruption/FRET/MOA assay)",pIC50 (KRAS WT; IC50* KRAS WT FRET data),pIC50 (NRAS G12C; IC50* NRAS G12C FRET data),"pIC50 (KRAS G12D; KRAS G12D FRET data IC50, Ras-Raf disruption/FRET/MOA assay)",pIC50 (KRAS G12V; IC50* KRAS G12V FRET data),pIC50 (NCI-H358 (K-Ras G12C))
> 5.30,"CCn1c(-c2cccnc2[C@H](C)OC)c2c3cc(ccc31)-c1cc(O)cc(c1)C[C@H](NC(=O)[C@H](C(C)C)N(C)C(=O)c1ccc(NC(=O)/C=C/CN(C)C)cn1)C(=O)N1CCC[C@H](N1)C(=O)OCC(C)(C)C2 (atropisomer, axis not shown) [Example A251]",6.00 to 7.00 and 5.00 to 6.00,7.00 to 8.00,7.00 to 8.00 and > 8.00,6.00 to 7.00 and 5.00 to 6.00,6.00 to 7.00 and 5.00 to 6.00,7.00 to 8.00,5.00 to 6.00 and < 5.00,6.00 to 7.00 and 5.00 to 6.00,–,–,–,–,–,–,–,–,–,–
–,"C=CC(=O)Nc1ccc(C(=O)N(C)[C@H](C(=O)N[C@H]2Cc3cc(O)cc(c3)-c3ccc4c(c3)c(c(-c3cccnc3[C@H](C)OC)n4CC)CC(C)(C)COC(=O)[C@@H]3CCCN(N3)C2=O)C(C)C)cn1 (atropisomer, axis not shown) [Example A336]",6.00 to 7.00,–,> 8.00,6.00 to 7.00,6.00 to 7.00,> 8.00,5.00 to 6.00,6.00 to 7.00,> 5.30,–,–,–,–,–,–,–,–,–
–,"C=CC(=O)N1CC(CN2C(=O)O[C@H](C)[C@H]2C(=O)N[C@H]2Cc3cccc(c3)-c3ccc4c(c3)c(c(-c3cccnc3[C@H](C)OC)n4CC)CC(C)(C)COC(=O)[C@@H]3CCCN(N3)C2=O)C1 (atropisomer, axis not shown) [Example A460]",–,–,–,–,–,–,–,–,–,< 5.00,5.00 to 6.00,5.00 to 6.00,< 5.00,< 5.00,5.00 to 6.00,< 5.00,< 5.00,–
–,"C=CC(=O)N1CCN(C(=O)N(C)[C@H](C(=O)N[C@H]2Cc3nc(cs3)-c3ccc4c(c3)c(c(-c3cccnc3[C@H](C)OC)n4CC(F)(F)F)CC(C)(C)COC(=O)[C@@H]3CCCN(N3)C2=O)C(C)C)CC1 (atropisomer, axis not shown) [Example A465]",7.00 to 8.00,7.00 to 8.00,7.00 to 8.00,7.00 to 8.00,7.00 to 8.00,7.00 to 8.00,7.00 to 8.00,–,> 5.30,–,–,–,–,–,–,–,–,–
–,"C=CC(=O)N1CC[C@H](C(=O)N(C)[C@H](C(=O)N[C@H]2Cc3cccc(c3)-c3ccc4c(c3)c(c(-c3cc(C5=CCN(C)CC5)cnc3[C@H](C)OC)n4CC)CC(C)(C)COC(=O)[C@@H]3CCCN(N3)C2=O)C(C)C)C1 (atropisomer, axis not shown) [Example A514]",< 5.00,5.00 to 6.00,5.00 to 6.00,< 5.00,< 5.00,5.00 to 6.00,< 5.00,< 5.00,–,–,–,–,–,–,–,–,–,–
–,"C=CC(=O)N1CC[C@H](C(=O)N(C)[C@H](C(=O)NC2C[C@H]3CN(CCCO3)c3ccc4c(c3)c(c(-c3cccnc3[C@H](C)OC)n4CC)CC(C)(C)COC(=O)[C@@H]3CCCN(N3)C2=O)C(C)C)C1 (single isomer, unassigned) [Example A405]",< 5.00,–,< 5.00,< 5.00,< 5.00,< 5.00,< 5.00,< 5.00,–,–,–,–,–,–,–,–,–,< 6.00
–,CCn1c(-c2cccnc2COC)c2c3cc(ccc31)-c1cc(O)cc(c1)C[C@H](NC(=O)[C@H](C(C)C)N(C)C(=O)[C@H]1CCN(C(=O)/C=C/CN(C)C)C1)C(=O)N1CCC[C@H](N1)C(=O)OCC(C)(C)C2 [Example A054],6.00 to 7.00,7.00 to 8.00,6.00 to 7.00,6.00 to 7.00,6.00 to 7.00,7.00 to 8.00,6.00 to 7.00,6.00 to 7.00,–,–,–,–,–,–,–,–,–,–
